Measurements reported in patent publication US20250171457A1, “NITROGEN-CONTAINING HETEROCYCLIC COMPOUND HAVING NRF2 ACTIVATION EFFECT” (CHUGAI SEIYAKU KABUSHIKI KAISHA, priority 2022, published 2025).

system: Nrf2 transcriptional activity (pARE-Luc reporter) in HepG2 cells; assay: In vitro Nrf2 transcriptional activity measurement by ARE-dependent reporter assay in HepG2 cell; type: cell-based, human; settings: Homo sapiens; HepG2 cells transfected with pARE-Luc, 4 hours at 37° C.; luciferase activity of Example 1-54 or Example 17-23 at 3.75 μM defined as 100%
Outline: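 HepG2 cells transfected with pGL4.37 (pARE-Luc), replated onto compound and incubated 4 h at 37° C; luciferase read by Bright-Glo luminescence. Response normalized to 100% set by a reference compound at 3.75 μM; EC50 from dose-response curve.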

SMILES | EC50
C[C@@H]1CN(c2cc(Cl)c(C(=O)N3COc4c(cccc4-c4cc(N5C6CCC5COC6)c(C(=O)O)cc4F)C3)c(Cl)c2)CCO1 [Compound 4-18, 4-[3-[2,6-Dichloro-4-[(2R)-2-methylmorpholin-4-yl]benzoyl]-2,4-dihydro-1,3-benzoxazin-8-yl]-5-fluoro-2-(3-oxa-8-azabicyclo[3.2.1]octan-8-yl)benzoic acid] | 3.6 nM
COc1cc(C(=O)N2COc3c(cccc3-c3cc(N4C5CCC4COC5)c(C(=O)O)cc3F)C2)c(Cl)cc1N1CC(OC)C1 [Compound 1-74, 4-[3-[2-Chloro-5-methoxy-4-(3-methoxyazetidin-1-yl)benzoyl]-2,4-dihydro-1,3-benzoxazin-8-yl]-5-fluoro-2-(3-oxa-8-azabicyclo[3.2.1]octan-8-yl)benzoic acid] | 2.7 nM
O=C(O)c1cc(F)c(-c2cccc3c2OCN(C(=O)c2c(Cl)cc(N4CC5(CCN5CC(F)F)C4)cc2Cl)C3)cc1N1C2CCC1COC2 [Compound 7-4, 4-[3-[2,6-Dichloro-4-[1-(2,2-difluoroethyl)-1,6-diazaspiro[3.3]heptan-6-yl]benzoyl]-2,4-dihydro-1,3-benzoxazin-8-yl]-5-fluoro-2-(3-oxa-8-azabicyclo[3.2.1]octan-8-yl)benzoic acid] | 4.3 nM
CN1CCC(COc2cc(Cl)c(C(=O)N3COc4c(cccc4-c4cc(N5CCOCC5)c(C(=O)O)cc4F)C3)c(Cl)c2)CC1 [Compound 4-48, 4-[3-[2,6-Dichloro-4-[(1-methylpiperidin-4-yl)methoxy]benzoyl]-2,4-dihydro-1,3-benzoxazin-8-yl]-5-fluoro-2-morpholin-4-ylbenzoic acid] | 2.6 nM
CC(C)OC1CN(c2cc(Cl)c(C(=O)N3COc4c(cccc4-c4cc(N5C6CCC5COC6)c(C(=O)O)cc4F)C3)c(Cl)c2)C1 [Compound 6-6, 4-[3-[2,6-Dichloro-4-(3-propan-2-yloxy-azetidin-1-yl)benzoyl]-2,4-dihydro-1,3-benzoxazin-8-yl]-5-fluoro-2-(3-oxa-8-azabicyclo[3.2.1]octan-8-yl)benzoic acid] | 12 nM
O=C(O)c1cc(F)c(-c2cccc3c2OCN(C(=O)c2c(Cl)cc(N4CC5(CCOC5)C4)cc2Cl)C3)cc1N1C2CCC1COC2 [Compound 1-3, 4-[3-[2,6-Dichloro-4-(6-oxa-2-azaspiro[3.4]octan-2-yl)benzoyl]-2,4-dihydro-1,3-benzoxazin-8-yl]-5-fluoro-2-(3-oxa-8-azabicyclo[3.2.1]octan-8-yl)benzoic acid] | 5.8 nM
O=C(O)c1cc(F)c(-c2cccc3c2OCN(C(=O)c2c(Cl)cc(N4CC(O)C4)cc2Cl)C3)cc1N1C2CCC1COC2 [Compound 1-17, 4-[3-[2,6-Dichloro-4-(3-hydroxyazetidin-1-yl)benzoyl]-2,4-dihydro-1,3-benzoxazin-8-yl]-5-fluoro-2-(3-oxa-8-azabicyclo[3.2.1]octan-8-yl)benzoic acid] | 19 nM
COC1(C)CC2(CN(c3cc(Cl)c(C(=O)N4COc5c(cccc5-c5cc(N6C7CCC6COC7)c(C(=O)O)cc5F)C4)c(Cl)c3)C2)C1 [Compound 16-2, 4-[3-[2,6-Dichloro-4-(6-methoxy-6-methyl-2-azaspiro[3.3]heptan-2-yl)benzoyl]-2,4-dihydro-1,3-benzoxazin-8-yl]-5-fluoro-2-(3-oxa-8-azabicyclo[3.2.1]octan-8-yl)benzoic acid] | 1.5 nM
O=C(O)c1cc(F)c(-c2cccc3c2OCN(C(=O)c2c(Cl)cc(N4CC5(CCCO5)C4)cc2Cl)C3)cc1N1C2CCC1COC2 [Compound 1-1, 4-[3-[2,6-Dichloro-4-(5-oxa-2-azaspiro[3.4]octan-2-yl)benzoyl]-2,4-dihydro-1,3-benzoxazin-8-yl]-5-fluoro-2-(3-oxa-8-azabicyclo[3.2.1]octan-8-yl)benzoic acid] | 2.8 nM
CO[C@H]1C[C@@]2(CN(c3cc(Cl)c(C(=O)N4COc5c(cccc5-c5cc(N6C7CCC6COC7)c(C(=O)O)cc5F)C4)c(Cl)c3)[C@@H]2C)C1 [Compound 1-24, 4-[3-[2,6-Dichloro-4-[(1R,4r,6R)-6-methoxy-1-methyl-2-azaspiro[3.3]heptan-2-yl]benzoyl]-2,4-dihydro-1,3-benzoxazin-8-yl]-5-fluoro-2-(3-oxa-8-azabicyclo[3.2.1]octan-8-yl)benzoic acid] | 1.4 nM
O=C(O)c1cc(F)c(-c2cccc3c2OCN(C(=O)c2c(Cl)cc(N4CC(F)(F)C4)cc2Cl)C3)cc1N1C2CCC1COC2 [Compound 1-19, 4-[3-[2,6-Dichloro-4-(3,3-difluoroazetidin-1-yl)benzoyl]-2,4-dihydro-1,3-benzoxazin-8-yl]-5-fluoro-2-(3-oxa-8-azabicyclo[3.2.1]octan-8-yl)benzoic acid] | 6.3 nM
O=C(O)c1cc(F)c(-c2cccc3c2OCN(C(=O)c2c(Cl)cc(N4CC(OCC(F)(F)F)C4)cc2Cl)C3)cc1N1C2CCC1COC2 [Compound 6-3, 4-[3-[2,6-Dichloro-4-[3-(2,2,2-trifluoroethoxy)azetidin-1-yl]benzoyl]-2,4-dihydro-1,3-benzoxazin-8-yl]-5-fluoro-2-(3-oxa-8-azabicyclo[3.2.1]octan-8-yl)benzoic acid] | 5.7 nM
Cn1cc(-c2cc(Cl)c(C(=O)N3COc4c(cccc4-c4cc(N5C6CCC5COC6)c(C(=O)O)cc4F)C3)c(Cl)c2)c2nccnc21 [Compound 3-21, 4-[3-[2,6-Dichloro-4-(5-methylpyrrolo[2,3-b]pyrazin-7-yl)benzoyl]-2,4-dihydro-1,3-benzoxazin-8-yl]-5-fluoro-2-(3-oxa-8-azabicyclo[3.2.1]octan-8-yl)benzoic acid] | 6.4 nM
O=C(O)c1cc(F)c(-c2cccc3c2OCN(C(=O)c2c(Cl)cc(N4CC(N5CC(F)(F)C5)C4)cc2Cl)C3)cc1N1C2CCC1COC2 [Compound 11-8, 4-[3-[2,6-Dichloro-4-[3-(3,3-difluoroazetidin-1-yl)azetidin-1-yl]benzoyl]-2,4-dihydro-1,3-benzoxazin-8-yl]-5-fluoro-2-(3-oxa-8-azabicyclo[3.2.1]octan-8-yl)benzoic acid] | 3.1 nM
COc1cc(Cl)c(C(=O)N2COc3c(cccc3-c3cc(N4CCOCC4)c(C(=O)O)cc3F)C2)cc1F [Compound 13-7, 4-[3-(2-Chloro-5-fluoro-4-methoxybenzoyl)-2,4-dihydro-1,3-benzoxazin-8-yl]-5-fluoro-2-morpholin-4-ylbenzoic acid] | 6.7 nM
O=C(O)c1cc(F)c(-c2cccc3c2OCN(C(=O)c2c(Cl)cc(N4CCOCC4)cc2Cl)C3)cc1N1CCOCC1 [Compound 1-59, 4-[3-(2,6-Dichloro-4-morpholin-4-ylbenzoyl)-2,4-dihydro-1,3-benzoxazin-8-yl]-5-fluoro-2-morpholin-4-ylbenzoic acid] | 1.2 nM
COCCN1C2CCC1CN(c1cc(Cl)c(C(=O)N3COc4c(cccc4-c4cc(N5C6CCC5COC6)c(C(=O)O)cc4F)C3)c(Cl)c1)C2 [Compound 7-11, 4-[3-[2,6-Dichloro-4-[8-(2-methoxyethyl)-3,8-diazabicyclo[3.2.1]octan-3-yl]benzoyl]-2,4-dihydro-1,3-benzoxazin-8-yl]-5-fluoro-2-(3-oxa-8-azabicyclo[3.2.1]octan-8-yl)benzoic acid] | 3.2 nM
O=C(O)c1cc(F)c(-c2cccc3c2OCN(C(=O)c2c(Cl)cc(N4CC5CCC(C4)N5CC4(F)COC4)cc2Cl)C3)cc1N1C2CCC1COC2 [Compound 7-15, 4-[3-[2,6-Dichloro-4-[8-[(3-fluorooxetan-3-yl)methyl]-3,8-diazabicyclo[3.2.1]octan-3-yl]benzoyl]-2,4-dihydro-1,3-benzoxazin-8-yl]-5-fluoro-2-(3-oxa-8-azabicyclo[3.2.1]octan-8-yl)benzoic acid] | 2.5 nM
CN1C2CCC1CN(c1cc(Cl)c(C(=O)N3COc4c(cccc4-c4cc(N5C6CCC5COC6)c(C(=O)O)cc4F)C3)c(Cl)c1)C2 [Compound 9-7, 4-[3-[2,6-Dichloro-4-(8-methyl-3,8-diazabicyclo[3.2.1]octan-3-yl)benzoyl]-2,4-dihydro-1,3-benzoxazin-8-yl]-5-fluoro-2-(3-oxa-8-azabicyclo[3.2.1]octan-8-yl)benzoic acid] | 14 nM
C[C@@H]1CN(C)CCN1c1cc(Cl)c(C(=O)N2COc3c(cccc3-c3cc(N(C)[C@@H]4CCOC4)c(C(=O)O)cc3F)C2)c(Cl)c1 [Compound 16-13, 4-[3-[2,6-Dichloro-4-[(2R)-2,4-dimethylpiperazin-1-yl]benzoyl]-2,4-dihydro-1,3-benzoxazin-8-yl]-5-fluoro-2-[methyl-[(3R)-oxolan-3-yl]amino]benzoic acid] | 4.4 nM
CN1CCN(c2cc(Cl)c(C(=O)N3COc4c(cccc4-c4cc(N5C6CCC5COC6)c(C(=O)O)cc4F)C3)c(Cl)c2)CC1 [Compound 4-60, 4-[3-[2,6-Dichloro-4-(4-methylpiperazin-1-yl)benzoyl]-2,4-dihydro-1,3-benzoxazin-8-yl]-5-fluoro-2-(3-oxa-8-azabicyclo[3.2.1]octan-8-yl)benzoic acid] | 7.5 nM
O=C(O)c1cc(F)c(-c2cccc3c2OCN(C(=O)c2c(Cl)cc(OCCCCO)cc2Cl)C3)cc1N1CCOCC1 [Compound 4-51, 4-[3-[2,6-Dichloro-4-(4-hydroxybutoxy)benzoyl]-2,4-dihydro-1,3-benzoxazin-8-yl]-5-fluoro-2-morpholin-4-ylbenzoic acid] | 2.6 nM
C[C@H](O)Cn1cc(-c2cc(Cl)c(C(=O)N3COc4c(cccc4-c4ccc(C(=O)O)c(N5CCOCC5)c4)C3)c(Cl)c2)cn1 [Compound 15-2, 4-[3-[2,6-Dichloro-4-[1-[(2S)-2-hydroxypropyl]pyrazol-4-yl]benzoyl]-2,4-dihydro-1,3-benzoxazin-8-yl]-2-morpholin-4-ylbenzoic acid] | 21 nM
Cn1cc(-c2cc(Cl)c(C(=O)N3CSc4c(cccc4-c4ccc(C(=O)O)c(N5CCOCC5)c4)C3)c(Cl)c2)cn1 [Compound 17-21, 4-[3-[2,6-Dichloro-4-(1-methylpyrazol-4-yl)benzoyl]-2,4-dihydro-1,3-benzothiazin-8-yl]-2-morpholin-4-ylbenzoic acid] | 22 nM
